# Data published in ChEMBL document CHEMBL4507297, “Data for DCP probe PF-04457845” (2021).
# Legend:
# [1] = molecular target: Serine/threonine-protein kinase Nek9 (Homo sapiens) (UniProt Q8TD19); settings: Compound concentration 1000.0 nM
# [2] = molecular target: Serine/threonine-protein kinase WNK2 (Homo sapiens) (UniProt Q9Y3S1); settings: Compound concentration 1000.0 nM
# [3] = molecular target: Serine/threonine-protein kinase RIO3 (Homo sapiens) (UniProt O14730); settings: Compound concentration 1000.0 nM
# [4] = molecular target: Serine/threonine-protein kinase MAK (Homo sapiens) (UniProt P20794); settings: Compound concentration 1000.0 nM
# Chain of Serine/threonine-protein kinase MAK (Homo sapiens) (P20794 whole entry): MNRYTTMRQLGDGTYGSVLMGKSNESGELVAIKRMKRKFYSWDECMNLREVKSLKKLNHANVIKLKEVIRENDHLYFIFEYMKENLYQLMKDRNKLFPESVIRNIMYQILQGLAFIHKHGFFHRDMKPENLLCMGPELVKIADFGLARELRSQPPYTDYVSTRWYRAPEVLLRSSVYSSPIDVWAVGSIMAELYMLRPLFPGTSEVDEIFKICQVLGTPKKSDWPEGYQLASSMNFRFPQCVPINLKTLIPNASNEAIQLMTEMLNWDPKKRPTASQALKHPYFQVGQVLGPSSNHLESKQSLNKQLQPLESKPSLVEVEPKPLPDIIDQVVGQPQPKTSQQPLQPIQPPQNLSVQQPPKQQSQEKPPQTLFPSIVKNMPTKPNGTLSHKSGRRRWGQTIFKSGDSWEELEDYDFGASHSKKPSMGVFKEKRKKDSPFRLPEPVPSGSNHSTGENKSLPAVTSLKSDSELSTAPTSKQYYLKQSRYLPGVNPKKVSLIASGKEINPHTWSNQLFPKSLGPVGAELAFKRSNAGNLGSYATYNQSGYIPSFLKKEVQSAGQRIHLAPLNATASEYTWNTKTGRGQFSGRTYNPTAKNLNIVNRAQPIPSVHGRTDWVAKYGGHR
# [5] = molecular target: Serine/threonine-protein kinase D3 (Homo sapiens) (UniProt O94806); settings: Compound concentration 1000.0 nM
# [6] = molecular target: Macrophage-stimulating protein receptor (Homo sapiens) (UniProt Q04912); settings: Compound concentration 1000.0 nM
# [7] = tested on: Receptor-type tyrosine-protein kinase FLT3 (Homo sapiens), P36888 [K663Q]; settings: Compound concentration 1000.0 nM
# [8] = molecular target: Serine/threonine-protein kinase 36 (Homo sapiens) (UniProt Q9NRP7); settings: Compound concentration 1000.0 nM
# [9] = molecular target: Ribosomal protein S6 kinase alpha-5 (Homo sapiens) (UniProt O75582); settings: Compound concentration 1000.0 nM
# [10] = molecular target: Bone morphogenetic protein receptor type-2 (Homo sapiens) (UniProt Q13873); settings: Compound concentration 1000.0 nM
# [11] = molecular target: Beta-adrenergic receptor kinase 1 (Homo sapiens) (UniProt P25098); settings: Compound concentration 1000.0 nM
# Chain of Beta-adrenergic receptor kinase 1 (Homo sapiens) (P25098 whole entry): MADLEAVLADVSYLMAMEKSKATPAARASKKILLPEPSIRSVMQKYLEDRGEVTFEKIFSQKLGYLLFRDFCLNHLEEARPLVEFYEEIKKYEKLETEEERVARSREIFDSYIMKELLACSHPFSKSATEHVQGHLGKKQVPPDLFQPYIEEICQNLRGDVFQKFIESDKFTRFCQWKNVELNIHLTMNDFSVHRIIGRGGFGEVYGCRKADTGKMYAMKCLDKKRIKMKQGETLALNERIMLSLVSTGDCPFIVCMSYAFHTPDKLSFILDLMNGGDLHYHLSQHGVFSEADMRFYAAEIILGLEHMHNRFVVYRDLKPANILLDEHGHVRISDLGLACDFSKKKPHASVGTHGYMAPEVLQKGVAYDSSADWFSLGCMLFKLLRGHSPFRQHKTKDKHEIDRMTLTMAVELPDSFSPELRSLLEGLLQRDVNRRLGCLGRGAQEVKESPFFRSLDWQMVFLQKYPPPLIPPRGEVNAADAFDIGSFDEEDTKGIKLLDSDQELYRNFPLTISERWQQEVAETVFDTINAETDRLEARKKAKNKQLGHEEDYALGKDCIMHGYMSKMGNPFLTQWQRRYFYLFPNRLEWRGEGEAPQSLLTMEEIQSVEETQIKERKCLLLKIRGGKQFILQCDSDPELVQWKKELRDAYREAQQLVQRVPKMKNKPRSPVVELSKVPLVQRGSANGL
# [12] = molecular target: Receptor tyrosine-protein kinase erbB-2 (Homo sapiens) (UniProt P04626); settings: Compound concentration 1000.0 nM
# [13] = tested on: Epidermal growth factor receptor (Homo sapiens), P00533 [G719C]; settings: Compound concentration 1000.0 nM
# [14] = molecular target: Tyrosine-protein kinase ABL2 (Homo sapiens) (UniProt P42684); settings: Compound concentration 1000.0 nM
# [15] = molecular target: Serine/threonine-protein kinase ULK3 (Homo sapiens) (UniProt Q6PHR2); settings: Compound concentration 1000.0 nM
# [16] = tested on: Mast/stem cell growth factor receptor Kit (Homo sapiens), P10721 [V559D]; settings: Compound concentration 1000.0 nM
# [17] = molecular target: Mitogen-activated protein kinase kinase kinase kinase 1 (Homo sapiens) (UniProt Q92918); settings: Compound concentration 1000.0 nM
# [18] = molecular target: Serine/threonine-protein kinase haspin (Homo sapiens) (UniProt Q8TF76); settings: Compound concentration 1000.0 nM
# [19] = molecular target: 1-phosphatidylinositol 3-phosphate 5-kinase (Homo sapiens) (UniProt Q9Y2I7); settings: Compound concentration 1000.0 nM
# [20] = molecular target: Dual specificity protein kinase TTK (Homo sapiens) (UniProt P33981); settings: Compound concentration 1000.0 nM
# [21] = molecular target: Serine/threonine-protein kinase 24 (Homo sapiens) (UniProt Q9Y6E0); settings: Compound concentration 1000.0 nM
# [22] = molecular target: Mitogen-activated protein kinase 11 (Homo sapiens) (UniProt Q15759); settings: Compound concentration 1000.0 nM
# [23] = molecular target: Mu-type opioid receptor (Homo sapiens) (UniProt P35372); settings: Compound concentration 10.0 uM
# Chain of Mu-type opioid receptor (Homo sapiens) (P35372 whole entry): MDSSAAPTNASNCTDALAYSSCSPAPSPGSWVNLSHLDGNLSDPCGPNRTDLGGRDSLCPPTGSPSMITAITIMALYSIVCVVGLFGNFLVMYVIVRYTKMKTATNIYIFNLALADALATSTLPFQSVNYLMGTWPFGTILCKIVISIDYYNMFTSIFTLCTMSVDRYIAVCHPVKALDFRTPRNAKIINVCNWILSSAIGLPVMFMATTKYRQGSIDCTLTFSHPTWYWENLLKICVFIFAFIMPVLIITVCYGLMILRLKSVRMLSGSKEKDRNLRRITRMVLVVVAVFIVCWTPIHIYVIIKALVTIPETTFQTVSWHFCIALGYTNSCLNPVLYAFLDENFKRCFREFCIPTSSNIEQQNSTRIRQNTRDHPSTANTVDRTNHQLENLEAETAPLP
# [24] = tested on: Proto-oncogene tyrosine-protein kinase receptor Ret (Homo sapiens), P07949 [V804M]; settings: Compound concentration 1000.0 nM
# [25] = molecular target: Tyrosine-protein kinase FRK (Homo sapiens) (UniProt P42685); settings: Compound concentration 1000.0 nM
# [26] = tested on: Phosphatidylinositol 4,5-bisphosphate 3-kinase catalytic subunit alpha isoform (Homo sapiens), P42336 [H1047L]; settings: Compound concentration 1000.0 nM
# [27] = molecular target: Serine/threonine-protein kinase 16 (Homo sapiens) (UniProt O75716); settings: Compound concentration 1000.0 nM
# Chain of Serine/threonine-protein kinase 16 (Homo sapiens) (O75716 whole entry): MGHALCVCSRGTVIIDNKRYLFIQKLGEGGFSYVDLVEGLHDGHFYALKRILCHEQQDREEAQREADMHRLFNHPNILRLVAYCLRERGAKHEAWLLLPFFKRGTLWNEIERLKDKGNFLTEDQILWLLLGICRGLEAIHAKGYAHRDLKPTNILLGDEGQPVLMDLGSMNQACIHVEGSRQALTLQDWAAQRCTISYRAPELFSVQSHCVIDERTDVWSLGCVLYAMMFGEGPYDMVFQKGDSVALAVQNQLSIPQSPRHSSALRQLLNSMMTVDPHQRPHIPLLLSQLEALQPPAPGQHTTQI
# [28] = molecular target: Protein-tyrosine kinase 6 (Homo sapiens) (UniProt Q13882); settings: Compound concentration 1000.0 nM
# Chain of Protein-tyrosine kinase 6 (Homo sapiens) (Q13882 whole entry, looked up): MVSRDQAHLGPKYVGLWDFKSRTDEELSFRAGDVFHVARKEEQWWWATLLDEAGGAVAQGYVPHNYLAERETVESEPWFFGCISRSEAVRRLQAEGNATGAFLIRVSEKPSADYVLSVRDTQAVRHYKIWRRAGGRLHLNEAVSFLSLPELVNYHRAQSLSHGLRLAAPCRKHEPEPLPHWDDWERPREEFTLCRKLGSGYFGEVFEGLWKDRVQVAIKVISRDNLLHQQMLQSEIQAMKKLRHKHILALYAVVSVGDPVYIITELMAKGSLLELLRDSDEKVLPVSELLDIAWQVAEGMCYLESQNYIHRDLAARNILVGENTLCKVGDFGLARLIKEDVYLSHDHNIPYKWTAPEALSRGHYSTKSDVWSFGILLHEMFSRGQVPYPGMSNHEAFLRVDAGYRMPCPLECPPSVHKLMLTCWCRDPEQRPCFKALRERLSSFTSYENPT
# [29] = molecular target: Dual specificity tyrosine-phosphorylation-regulated kinase 1B (Homo sapiens) (UniProt Q9Y463); settings: Compound concentration 1000.0 nM
# [30] = molecular target: Serine/threonine-protein kinase 38-like (Homo sapiens) (UniProt Q9Y2H1); settings: Compound concentration 1000.0 nM
# [31] = molecular target: Mitogen-activated protein kinase kinase kinase 2 (Homo sapiens) (UniProt Q9Y2U5); settings: Compound concentration 1000.0 nM
# [32] = tested on: Epidermal growth factor receptor (Homo sapiens), P00533 [UNDEFINED MUTATION]; settings: Compound concentration 1000.0 nM
# [33] = molecular target: Serine/threonine-protein kinase MRCK beta (Homo sapiens) (UniProt Q9Y5S2); settings: Compound concentration 1000.0 nM
# [34] = molecular target: Casein kinase I isoform alpha-like (Homo sapiens) (UniProt Q8N752); settings: Compound concentration 1000.0 nM
# [35] = molecular target: Calcium/calmodulin-dependent protein kinase type II subunit gamma (Homo sapiens) (UniProt Q13555); settings: Compound concentration 1000.0 nM
# [36] = molecular target: Casein kinase II subunit alpha' (Homo sapiens) (UniProt P19784); settings: Compound concentration 1000.0 nM
# [37] = molecular target: Homeodomain-interacting protein kinase 3 (Homo sapiens) (UniProt Q9H422); settings: Compound concentration 1000.0 nM
# [38] = molecular target: D(3) dopamine receptor (Homo sapiens) (UniProt P35462); settings: Compound concentration 10.0 uM
# Chain of D(3) dopamine receptor (Homo sapiens) (P35462 whole entry): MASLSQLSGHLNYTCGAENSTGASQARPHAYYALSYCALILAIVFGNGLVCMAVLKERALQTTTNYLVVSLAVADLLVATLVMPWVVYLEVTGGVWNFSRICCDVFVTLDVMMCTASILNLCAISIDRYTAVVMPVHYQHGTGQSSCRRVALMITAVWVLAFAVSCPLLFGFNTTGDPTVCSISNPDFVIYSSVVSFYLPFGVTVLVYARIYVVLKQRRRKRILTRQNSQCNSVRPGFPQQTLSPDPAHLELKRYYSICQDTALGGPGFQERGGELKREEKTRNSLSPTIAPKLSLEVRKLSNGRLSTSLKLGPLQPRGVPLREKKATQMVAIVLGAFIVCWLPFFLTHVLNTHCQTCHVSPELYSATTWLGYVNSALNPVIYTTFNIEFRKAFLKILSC
# [39] = molecular target: Ephrin type-B receptor 4 (Homo sapiens) (UniProt P54760); settings: Compound concentration 1000.0 nM
# [40] = molecular target: Histamine H2 receptor (Homo sapiens) (UniProt P25021); settings: Compound concentration 10.0 uM
# [41] = molecular target: Mitogen-activated protein kinase kinase kinase kinase 3 (Homo sapiens) (UniProt Q8IVH8); settings: Compound concentration 1000.0 nM
# [42] = molecular target: LIM domain kinase 2 (Homo sapiens) (UniProt P53671); settings: Compound concentration 1000.0 nM
# Chain of LIM domain kinase 2 (Homo sapiens) (P53671 whole entry, looked up, the tested form may be a part): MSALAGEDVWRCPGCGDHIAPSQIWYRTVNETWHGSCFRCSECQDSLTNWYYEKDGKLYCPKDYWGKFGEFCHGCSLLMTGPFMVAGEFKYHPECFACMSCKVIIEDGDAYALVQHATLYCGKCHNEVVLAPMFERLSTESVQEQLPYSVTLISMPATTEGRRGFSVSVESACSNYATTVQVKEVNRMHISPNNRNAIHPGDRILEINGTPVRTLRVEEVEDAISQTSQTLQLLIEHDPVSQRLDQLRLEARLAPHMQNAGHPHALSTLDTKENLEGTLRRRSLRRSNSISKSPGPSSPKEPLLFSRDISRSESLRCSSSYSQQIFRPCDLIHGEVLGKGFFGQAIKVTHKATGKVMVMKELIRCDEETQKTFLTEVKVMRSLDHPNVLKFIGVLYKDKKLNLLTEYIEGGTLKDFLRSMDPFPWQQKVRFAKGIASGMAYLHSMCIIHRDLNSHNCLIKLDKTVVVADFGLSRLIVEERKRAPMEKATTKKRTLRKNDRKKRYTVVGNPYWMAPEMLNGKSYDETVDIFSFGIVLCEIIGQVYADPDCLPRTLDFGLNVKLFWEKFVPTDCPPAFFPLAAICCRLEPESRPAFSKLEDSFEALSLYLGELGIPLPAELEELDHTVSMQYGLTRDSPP
# [43] = molecular target: Receptor-interacting serine/threonine-protein kinase 2 (Homo sapiens) (UniProt O43353); settings: Compound concentration 1000.0 nM
# Chain of Receptor-interacting serine/threonine-protein kinase 2 (Homo sapiens) (O43353 whole entry): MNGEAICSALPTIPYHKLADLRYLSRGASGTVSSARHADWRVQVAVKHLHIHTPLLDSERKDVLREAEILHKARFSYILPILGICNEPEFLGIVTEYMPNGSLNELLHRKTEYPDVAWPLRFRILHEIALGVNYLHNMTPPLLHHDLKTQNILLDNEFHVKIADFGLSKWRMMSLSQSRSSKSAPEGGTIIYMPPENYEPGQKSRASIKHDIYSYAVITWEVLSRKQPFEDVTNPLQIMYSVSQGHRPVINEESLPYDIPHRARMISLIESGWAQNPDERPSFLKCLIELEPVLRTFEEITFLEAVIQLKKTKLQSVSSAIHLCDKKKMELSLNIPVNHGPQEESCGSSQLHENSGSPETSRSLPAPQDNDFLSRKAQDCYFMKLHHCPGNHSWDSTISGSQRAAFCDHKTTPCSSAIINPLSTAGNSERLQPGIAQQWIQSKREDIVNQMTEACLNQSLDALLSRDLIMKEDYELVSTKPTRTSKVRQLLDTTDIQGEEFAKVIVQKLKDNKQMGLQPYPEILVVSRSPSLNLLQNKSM
# [44] = molecular target: Mitogen-activated protein kinase kinase kinase 11 (Homo sapiens) (UniProt Q16584); settings: Compound concentration 1000.0 nM
# [45] = molecular target: Cyclin-dependent kinase 16 (Homo sapiens) (UniProt Q00536); settings: Compound concentration 1000.0 nM
# Chain of Serine/threonine-protein kinase Nek9 (Homo sapiens) (Q8TD19 whole entry): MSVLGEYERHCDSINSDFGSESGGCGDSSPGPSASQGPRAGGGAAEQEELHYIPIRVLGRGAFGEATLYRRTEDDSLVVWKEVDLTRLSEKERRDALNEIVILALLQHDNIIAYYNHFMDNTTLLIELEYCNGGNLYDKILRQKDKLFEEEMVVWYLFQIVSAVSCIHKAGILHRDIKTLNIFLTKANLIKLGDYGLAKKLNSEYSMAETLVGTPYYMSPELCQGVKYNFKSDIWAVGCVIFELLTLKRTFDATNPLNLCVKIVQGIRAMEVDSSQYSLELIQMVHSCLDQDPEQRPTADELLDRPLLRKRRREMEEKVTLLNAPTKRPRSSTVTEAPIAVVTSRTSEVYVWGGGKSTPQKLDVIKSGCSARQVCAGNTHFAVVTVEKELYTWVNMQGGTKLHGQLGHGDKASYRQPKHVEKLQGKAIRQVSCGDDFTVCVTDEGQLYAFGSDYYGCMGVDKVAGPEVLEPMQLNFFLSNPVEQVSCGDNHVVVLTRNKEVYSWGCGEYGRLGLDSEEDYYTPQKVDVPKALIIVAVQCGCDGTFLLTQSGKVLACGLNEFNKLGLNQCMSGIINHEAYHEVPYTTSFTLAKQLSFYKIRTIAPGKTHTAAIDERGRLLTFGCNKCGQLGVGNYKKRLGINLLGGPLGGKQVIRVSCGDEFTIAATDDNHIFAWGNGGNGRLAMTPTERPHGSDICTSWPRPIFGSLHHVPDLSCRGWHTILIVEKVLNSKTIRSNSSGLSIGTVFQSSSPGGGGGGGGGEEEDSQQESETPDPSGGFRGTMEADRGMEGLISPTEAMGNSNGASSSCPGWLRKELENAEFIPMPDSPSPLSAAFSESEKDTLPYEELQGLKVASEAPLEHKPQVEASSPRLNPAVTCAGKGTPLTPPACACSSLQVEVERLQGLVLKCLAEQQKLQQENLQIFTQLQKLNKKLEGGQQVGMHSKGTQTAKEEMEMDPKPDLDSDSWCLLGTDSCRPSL
smiles,measurement,setting,value
O=C(Nc1cccnn1)N1CCC(=Cc2cccc(Oc3ccc(C(F)(F)F)cn3)c2)CC1,residual activity,[1],100%
same,residual activity,[2],92%
same,residual activity,[3],100%
same,residual activity,[4],100%
same,residual activity,[5],83%
same,residual activity,[6],92%
same,residual activity,[7],100%
same,residual activity,[8],100%
same,residual activity,[9],83%
same,residual activity,[10],100%
same,residual activity,[11],100%
same,residual activity,[12],72%
same,residual activity,[13],100%
same,residual activity,[14],99%
same,residual activity,[15],100%
same,residual activity,[16],75%
same,residual activity,[17],80%
same,residual activity,[18],100%
same,residual activity,[19],100%
same,residual activity,[20],100%
same,residual activity,[21],100%
same,residual activity,[22],83%
same,inhibition,[23],17.5%
same,residual activity,[24],100%
same,residual activity,[25],100%
same,residual activity,[26],100%
same,residual activity,[27],90%
same,residual activity,[28],100%
same,residual activity,[29],100%
same,residual activity,[30],84%
same,residual activity,[31],100%
same,residual activity,[32],68%
same,residual activity,[33],100%
same,residual activity,[34],76%
same,residual activity,[35],74%
same,residual activity,[36],100%
same,residual activity,[37],100%
same,inhibition,[38],4.08%
same,residual activity,[39],69%
same,inhibition,[40],17.3%
same,residual activity,[41],100%
same,residual activity,[42],88%
same,residual activity,[43],94%
same,residual activity,[44],74%
same,residual activity,[45],100%
O=C(Nc1cccnn1)N1CC(C/C=C/c2cncc(Oc3ccc(C(F)(F)F)cn3)n2)C1,residual activity,[1],100%
same,residual activity,[2],0%
same,residual activity,[3],100%
same,residual activity,[4],100%
same,residual activity,[5],100%
same,residual activity,[6],100%
same,residual activity,[7],100%
same,residual activity,[8],100%
same,residual activity,[9],100%
same,residual activity,[10],76%
same,residual activity,[11],96%
same,residual activity,[12],83%
same,residual activity,[13],100%
same,residual activity,[14],100%
same,residual activity,[15],82%
same,residual activity,[16],64%
same,residual activity,[17],98%
same,residual activity,[18],79%
same,residual activity,[19],100%
same,residual activity,[20],100%
same,residual activity,[21],98%
same,residual activity,[22],100%
same,inhibition,[23],1.18%
same,residual activity,[24],100%
same,residual activity,[25],82%
same,residual activity,[26],100%
same,residual activity,[27],98%
same,residual activity,[28],91%
same,residual activity,[29],100%
same,residual activity,[30],100%
same,residual activity,[31],79%
same,residual activity,[32],100%
same,residual activity,[33],100%
same,residual activity,[34],100%
same,residual activity,[35],100%
same,residual activity,[36],100%
same,residual activity,[37],74%
same,inhibition,[38],-9.59%
same,residual activity,[39],100%
same,inhibition,[40],-3.96%
same,residual activity,[41],100%
same,residual activity,[42],95%
same,residual activity,[43],93%
same,residual activity,[44],100%
same,residual activity,[45],81%
